Reference: patent US20260345530A1, “Use of a Therapeutic Agent with Sodium-Hydrogen Antiporter 1 Inhibitory Activity for the Treatment and Prevention of Diseases Associated with Chronic Fatigue, Exhaustion and/or Exertional Intolerance” (MITODICURE GMBH, priority 2022, published 2026)

Legend:
[1] = test system: isolated rat soleus muscle; assay: Ex vivo model of residual muscle force (fatigue) in isolated rat soleus muscle after sodium overload by high NaCl (200 mM) buffer; parameters: species or system rat (female Sprague Dawley); conditions: for residual contractile force compared with baseline control: drug concentrations of 30 to 500 nM, added 10 min before 30 min in 200 mM NaCl buffer, then stimulation in physiological NaCl buffer, 30 °C, pH 7.4, controls without inhibitor 10% to 20%; for effect on rat soleus muscle force decline: high NaCl (200 mM) protocol, result in words
Description: The claim of this patent is that NHE1 inhibitors can improve disturbed body function and symptoms of ME/CFS, as an example of diseases associated with chronic fatigue (DACF). Muscular fatigue and loss of force (e.g., loss of handgrip strength) is a hallmark in ME/CFS patients. A main target of NHE1 inhibition is the skeletal muscle whose energetic function is deeply disturbed in ME/CFS and which is presumed to be very important in the symptomatology of ME/CFS. NHE1 activity plays a key role in the development of the disturbances by a rise in intramuscular sodium that finally leads to calcium overload. The latter causes a deep functional energetic disturbance or damage. The isolated rat muscle either soleus muscle or extensor digitorum longus muscle is a well-characterized and well-validated model for the study of the function of ion exchangers. The isolated rat soleus muscle is particularly appropriate for experiments ex vivo as it is very thin so that there is no need for blood supply. […] In this experimental setting, a high NaCl concentration buffer causes sodium influx to disturb and decrease excitability and to disturb calcium homeostasis to subsequently reduce muscle force. Inhibition of the NHE1, which exchanges one proton for the uptake of one sodium ion, reduces sodium entry and overload. Prevention or diminution of a loss of muscular force in this procedure indicates effective inhibition of NHE1 by a test compound with the described mode of action of NHE1-inhibition.
The decline in force in the soleus muscle can be considered as muscular fatigue and related to the loss of hand grip muscular strength in ME/CFS patients. The described ex vivo model is suited for testing the effect of NHE1 inhibitors and in particular their effect on force generation disturbed by mechanisms that worsen excitability or the energetic situation or calcium homeostasis via the sodium-calcium-exchanger. High NaCl in a buffer (200 mM) is used to cause intracellular sodium loading leading to a decline in contractile force.
The resulting decline in muscular force is considered as muscular fatigue. In the absence of electrical stimulation avoiding sodium entry by sodium channels the sodium influx during high NaCl exposure is due to the NHE1. Inhibition of NHE1 can prevent sodium overload and a decline in muscular force and fatigue.
Muscle preparation and incubation: Female Sprague Dawley rats of 5 weeks of age are used. After isoflurane anesthesia and cervical dislocation the intact soleus muscles of the animals is dissected. […]
Force measurement: The experimental set-up for force measurements allows for the simultaneous recordings from 6 muscles in separate incubation chambers in parallel. Force is recorded and stored with a Notocord HEM data acquisition system. […]

[2] = test system: myocardial infarction and dystrophic cardiomyopathy including DMD; conditions: animal models; Ghaleh et al. doi: 10.1016/j.ijcard.2020.03.031; cited from earlier work
[3] = test system: Ca2^+ and Na+ overload; conditions: preclinical; Chahine et al. doi: 10.1016/j.yjmcc.2005.01.003; Bkaily and Jacques doi: 10.1139/cjpp-2017-0265; cited from earlier work

Compound | residual contractile force compared with baseline control [1] | effect on rat soleus muscle force decline [1] | cardioprotective effects [2] | effect in preventing the deleterious effects of Ca2^+ and Na+ overload [3]
CC(C)c1ccc(C(=O)NC(=N)N)cc1S(C)(=O)=O [Cariporide] | 50-70% | diminished the loss of force | cardioprotective effects | beneficial effects
Cc1cc(S(C)(=O)=O)c(S(C)(=O)=O)cc1C(=O)N=C(N)N [Rimeporide, N-(4,5-bismethanesulfonyl-2-methylbenzoyl)guanidine] | 50-70% | diminished the loss of force | cardioprotective effects | beneficial effects
